Measured values taken from ChEMBL document CHEMBL2094260, “Malaria Box Tuberculosis Screening Data”.
Converted amounts (≈) assume the structure as drawn.

How the values were obtained:
[1] = tested on: Mycobacterium tuberculosis; assay: MMV: Screen against Mtb, single point, replicating, at 25uM; format: functional
[2] = tested on: Mycobacterium tuberculosis; assay: MMV: Screen against Mtb, single point, non replicating, at 25uM; format: functional
[3] = tested on: Mycobacterium tuberculosis; assay: MMV: CRC and MIC90 against Mtb (replicating); format: functional
[4] = MMV: Cytotoxicity CRC and LD50 against HepG2; format: toxicity, cell-based; details: human, HepG2 cells; read-out: LD50 (the source's name)
[5] = tested on: Mycobacterium tuberculosis; assay: MMV: CRC and MIC90 against Mtb (non replicating); format: functional

Row | Compound | inhibition at 25 µM [1] | inhibition at 25 µM [2] | MIC90 [3] | CC50 [4] | MIC90 [5]
1 | CC(=O)c1sc(NC(=O)Nc2ccc(C)cc2C)nc1C | 10.3% | 6.64% |  |  | 
2 | COc1ccc(-c2cn3c(C(=O)Nc4ccccc4Cl)c(-c4ccccc4)c4c3n2CCCC4)cc1 | 8.39% | 2.56% |  |  | 
3 | Cn1c(=O)n(C)c2cc(CNCCNc3ccnc4cc(Cl)ccc34)ccc21 | 11.4% | 8.95% |  |  | 
4 | Cn1c(C(=O)c2cccc3ccccc23)nc2ccccc21 | 4.31% | 31.5% |  |  | 
5 | CCN(CC)CCNc1ccnc2cc3ccccc3cc12 | 0.862% | 0.0721% |  |  | 
6 | COc1ccc(C=C2SC(Nc3ccc(F)cc3)=NC2=O)c(OC)c1 | 23.3% | 7.53% |  |  | 
7 | Oc1ccc2ccccc2c1CNc1nc2ccccc2[nH]1 | 76.1% | 35.9% | 74.1 µM (≈ 21.4 µg/mL) | 14.1 µM | 
8 | O=C(Nc1ccc(-c2nc3ccccc3[nH]2)cc1)c1ccc(Cl)c(Cl)c1 | 9.8% | 26.5% |  |  | 
9 | O=C(Nc1ccc(-c2nc3cc(NC(=O)c4ccc(Cl)cc4)ccc3[nH]2)cc1)c1ccc(Cl)cc1 | 11.7% | 17.6% |  |  | 
10 | COc1ccccc1C(=O)ON=C(N)Cc1cccc2ccccc12 | 52.3% | 32.7% |  |  | 
11 | COc1ccc(C(=O)C(CCC(CNC(C)(C)C)C(=O)c2ccc(OC)cc2)CNC(C)(C)C)cc1 (configuration not stated) | 10.9% | 21% |  |  | 
12 | Cc1c(C)n(Cc2ccc(F)cc2)c2ccc(C(=O)NCc3ccco3)cc12 | 69.5% | 11.7% |  | > 100 µM | 
13 | CCOc1cc2c(cc1OCC)C(c1cc(Cl)ccc1O)NCC2 (configuration not stated) | 7.45% | -6.67% |  |  | 
14 | COc1cc(C(=O)ON=C(N)Cc2cccc3ccccc23)cc(OC)c1OC | 59.3% | 24.2% |  |  | 
15 | CN1C=C(c2ccc3ccccc3n2)C(c2c[nH]c3ccccc23)c2ccccc21 (configuration not stated) | 19.7% | 20.1% |  |  | 
16 | Oc1c(C(Nc2ccccn2)c2cccc(Oc3ccccc3)c2)ccc2cccnc12 (configuration not stated) | -15.4% | 11.8% |  |  | 
17 | COc1cc(-c2nc(-c3ccccc3)c(-c3ccccc3)[nH]2)cc(OC)c1O | 17% | 18% |  |  | 
18 | OC(CNC1CCCCC1)Cn1c2ccc(I)cc2c2cc(I)ccc21 (configuration not stated) | 16.9% | 10.9% |  |  | 

Row | Compound | inhibition at 25 µM [1] | inhibition at 25 µM [2] | MIC90 [3] | CC50 [4] | MIC90 [5]
19 | CCc1ccc(CNCC(O)c2ccccc2)cc1 (configuration not stated) | 35.5% | 4.33% |  |  | 
20 | O=C(Nc1nc(-c2ccccn2)cs1)c1ccccc1Br | 95.3% | 84.5% | 48.7 µM (≈ 17.5 µg/mL) |  | 58.2 µM (≈ 21 µg/mL)
21 | CCn1c2c(c(=N)c3c1CCC3)CCCC2 | 10.1% | 8.24% |  |  | 
22 | CCOc1ccc(Nc2ccnc3cc(Cl)ccc23)cc1 | 54.6% | 8.59% |  |  | 
23 | Oc1ccc(Br)cc1CN1CCN(Cc2ccc(Cl)cc2)CC1 | 19.7% | 17.6% |  |  | 
24 | COc1cc2c3cc1Oc1c(OC)c(OC)cc4c1C(Cc1ccc(O)c(c1)Oc1ccc(cc1)CC3N(C)CC2)N(C)CC4 (configuration not stated) | 3.53% | 18.5% |  |  | 
25 | Cc1ccc(C)c(-c2csc(Nc3ccc(C)c(C)c3)n2)c1 | 12.5% | 9.48% |  |  | 
26 | COc1ccc2sc(N(Cc3cccnc3)C(=O)c3ccc(C#N)cc3)nc2c1 | 15% | 5.22% |  |  | 
27 | CC1CC2=C(CC1CNCCCN(C)C)C(C)(C)CCC2 (configuration not stated) | 42.2% | -0.993% |  |  | 
28 | CN(C)c1ccc(N=Cc2ccc(N3CCOCC3)cc2)cc1 | 38.8% | -1.53% |  |  | 
29 | CCOC(=O)c1cnc2ccc(OC)cc2c1NCc1ccccc1 | 40.2% | 23% |  |  | 
30 | CCOC(=O)C1=CN(C)C=C(C(=O)OCC)C1c1cc(Br)c(OCC)c(OC)c1 | -1.96% | 10.7% |  |  | 
31 | CC(C)(C)c1ccc(C2CC3=Nc4ccccc4N(C(=O)c4ccccc4Cl)C(c4ccc(F)cc4)C3=C(O)C2)cc1 (configuration not stated) | 1.49% | 14.4% |  |  | 
32 | CN1CCN(c2nc(Nc3ccc(O)cc3)nc3ccccc23)CC1 | 8.7% | 6.46% |  |  | 
33 | CCCCc1c(CCC)c(=N)c2ccccc2n1C | 6.04% | -5.96% |  |  | 
34 | Nc1ccn([C@@H]2O[C@H](CO)[C@@H](O)[C@H]2O)c(=O)n1 [CYTIDINE] | -3.06% | 14.6% |  |  | 
35 | O=C(Nc1cccc(C2=NCCN2)c1)Nc1cccc(C2=NCCN2)c1 [IMIDOCARB] | 5.56% | 11.1% |  |  | 
36 | CN(C)c1ccc(C(O)(c2ccc(N(C)C)cc2)c2ccc(N(C)C)cc2)cc1 [METHYLROSANILINE] | 28.6% | 59.8% |  |  | 
